From US20090074815A1, “Immunomodulator Compounds as Vaccine Enhancers” (SCICLONE PHARMACEUTICALS, INC., priority 2005, published 2009)
Like-named read-outs stand apart in the source and are kept apart here.

Legend:
[1] = Indices of humoral immunity (CD20+, IgA, IgM, IgG, CH50, circulating immune complexes) before and after vaccination; conditions: patients with infectious syndrome, hepatitis B vaccination with SCV-07, after vaccination, n = 16, M ± m
Procedure: This group, which received SCV-07 and hepatitis B vaccine, included thirty-three (33) essentially healthy students from the Chelyabinsk State Medical Academy.
The hepatitis vaccine Engerix-B® produced by SmithKlineBeecham-Biomed (Russia) was administered as a course of 3 doses given at months 0, 1, and 6. Immunological examinations of the subjects were carried out before the first administration of the vaccine and at one month after completion of the course of immunization.
Participants were evaluated to determine levels of leukocytes in peripheral blood, leukocytary formula, the presence of marker specific lymphocytes (CD3, CD4, CD8, CD16, CD95 and CD20), lysosomal activity of neutrophils; oxygen-dependent metabolism with spontaneous and induced hematocrit (HCT) tests, phagocytary function of neutrophils according to the latex particle absorption model; immunoglobulin IgA, IgM, IgG concentrations; total hemolytic activity of complement (CH50) in blood serum and for circulating immune complexes. […] A concentration of 10 MU/liter (l) was assumed to be a protective hepatitis B titer.
The immunomodulator SCV-07 was administered at the same time as the hepatitis B vaccine to determine if SCV-07 increased the efficacy of vaccination and to determine if it would correct the immunity disorders of subjects with infectious syndrome. A one milligram (1 mg) dose of SCV-07 was administered as an intra muscular injection to the 32 subjects of Group 2 of the study on days one to five, where day one was the day the first dose of the hepatitis B vaccine was administered. One (1) mg of SCV-07 was also administered with the second and third doses of vaccine one month and 6 months following administration of the initial vaccine dose. Study participants in Group I received injections of physiological saline which were administered on the same schedule as the SCV-07 to provide a placebo control group.

bone marrow cells = experiment: Expression of Thy1 marker by bone marrow cells (flow cytometry) after SCV-07 treatment; assay type: in vivo, mice
Source text: Materials and Methods: Eighteen (18) to twenty (20) gram (g) male mice, purchased from the Rappolovo Animal Facility, Russia, were used in the studies described below. C57BL/6 (B6) mice were used to evaluate the effect of SCV-07 in non-immunized mice. CBAxC57BL/6 (F1) mice were used for studies of the effects of SCV-07 on the antigen-specific immune response. Mice were kept under the standard animal facility conditions and were provided with a standard diet and water ad libitum. Each treatment group included 4-5 mice. […] A suspension containing filling agents alone, which corresponded to the maximum amount of filling agents in the doses of SCV-07 administered to experimental animals, was used a control. Thigh bones were removed from treated mice under aseptic conditions, and the medullary cavities were […] washed with PBS. Fragments of the bone marrow were minced by passing the tissue through a syringe needle. The resulting cell suspension was filtered through a double gauze layer and washed in PBS. After erythrocytes were lysed, the cells were counted and transferred to flat bottom culture plates. Due to an almost complete lack of spontaneous proliferation, the absolute values of proliferation, which were expressed as counts per minute (CPM), were determined and the Con A-induced proliferation of thymic cells from animals of different groups were compared. Analysis by Flow Cytometry: […] Immunomodulatory Activity of SCV-07 After Oral Administration: Thy1-positive lymphocytes, the precursors of T-cells in the bone marrow, increased in a dose-dependent manner in mice after treatment with SCV-07 per os. These increases were analogous to those observed in mice which received SCV-07 i.p (Table 2).

[2] = tested on: IL-2 production by ConA-stimulated thymic cells; experiment: IL-2 production by ConA-stimulated thymic cells (IL-2-dependent CTLL-2 bioassay); assay type: in vivo, mice
Source text: Considering that significant enhancement of proliferation by SCV-07 might be due to its influence on IL-2 production, IL-2 activity was studied with the IL-2-dependent CTLL-2 line.

[3] = tested on: IFN-γ production by OvA-stimulated splenocytes; experiment: OvA-stimulated production of IFN-γ by splenocytes of OvA-immunized mice; assay type: in vivo; conditions: for activity at 0.0001 mg/kg / activity at 0.001 mg/kg / activity at 0.01 mg/kg: Mus musculus, Splenocyte, po, read-out: Production of IFN-γ by splenocytes, % (% of control); for activity at 0.0001 mg/kg: 0.1 μg/kg per os; for activity at 0.001 mg/kg: 1.0 μg/kg per os; for activity at 0.01 mg/kg: 10.0 μg/kg per os
[4] = OvA/Alum, 0.1 μg/kg i/p, OvA 10 μg/ml

With `N[C@H](CCC(=O)N[C@@H](Cc1c[nH]c2ccccc12)C(=O)O)C(=O)O` [SCV-07, γ-D-glutamyl-L-tryptophan] the “CD20+ %” value [1] was 15.93 ± 1.20%, the “CH50, conv. units” value [1] was 64.53 ± 4.11 conv. units and the “CIC, conv. units” value [1] was 53.93 ± 8.03 conv. units. For the same compound, the “IgA” value [1] was 1.821 ± 0.087 g/L, the “IgG” value [1] was 8.931 ± 0.481 g/L and the “IgM” value [1] was 1.179 ± 0.089 g/L. For the same compound, the “Thy-1 positive cells, %” value (bone marrow cells; 0.1 μg/kg per os) was 12.9 ± 1.2%, the “Thy-1 positive cells, %” value (bone marrow cells; 1.0 μg/kg i/p) was 15.4 ± 0.1% and the “Thy-1 positive cells, %” value (bone marrow cells; 1.0 μg/kg per os) was 14.9 ± 1.3%. The “Thy-1 positive cells, %” value (bone marrow cells; 10.0 μg/kg per os) was 16.0 ± 0.7%, the “Thy-1 positive cells, %” value (bone marrow cells; 100.0 μg/kg per os) was 16.0 ± 1.2% and the “IL-2 production (U/ml), M ± SD” value ([2]; ConA 1 μg/ml, 0.01 μg/kg per os) was 0.00 ± 0.00 U/ml. The “IL-2 production (U/ml), M ± SD” value ([2]; ConA 1 μg/ml, 0.1 μg/kg i/p) was 0.25 ± 0.08 U/ml, the “IL-2 production (U/ml), M ± SD” value ([2]; ConA 1 μg/ml, 0.1 μg/kg per os) was 0.10 ± 0.13 U/ml and the “IL-2 production (U/ml), M ± SD” value ([2]; ConA 1 μg/ml, 1.0 μg/kg i/p) was 0.92 ± 0.06 U/ml. The “IL-2 production (U/ml), M ± SD” value ([2]; ConA 1 μg/ml, 1.0 μg/kg per os) was 1.06 ± 0.37 U/ml, the “IL-2 production (U/ml), M ± SD” value ([2]; ConA 1 μg/ml, 10.0 μg/kg per os) was 0.25 ± 0.12 U/ml and the “IL-2 production (U/ml), M ± SD” value ([2]; ConA 1 μg/ml, 100.0 μg/kg per os) was 0.31 ± 0.15 U/ml. The “IL-2 production (U/ml), M ± SD” value ([2]; ConA 2 μg/ml, 0.01 μg/kg per os) was 0.44 ± 0.11 U/ml, the “IL-2 production (U/ml), M ± SD” value ([2]; ConA 2 μg/ml, 0.1 μg/kg i/p) was 1.40 ± 0.38 U/ml and the “IL-2 production (U/ml), M ± SD” value ([2]; ConA 2 μg/ml, 0.1 μg/kg per os) was 1.00 ± 0.13 U/ml. For the same compound, the “IL-2 production (U/ml), M ± SD” value ([2]; ConA 2 μg/ml, 1.0 μg/kg i/p) was 1.60 ± 0.15 U/ml, the “IL-2 production (U/ml), M ± SD” value ([2]; ConA 2 μg/ml, 1.0 μg/kg per os) was 3.31 ± 0.01 U/ml and the “IL-2 production (U/ml), M ± SD” value ([2]; ConA 2 μg/ml, 10.0 μg/kg per os) was 0.39 ± 0.12 U/ml. The “IL-2 production (U/ml), M ± SD” value ([2]; ConA 2 μg/ml, 100.0 μg/kg per os) was 1.19 ± 0.30 U/ml, the activity at 0.0001 mg/kg ([3]; OvA/Alum, OvA 0 μg/ml) was 100% and the activity at 0.0001 mg/kg ([3]; OvA/Alum, OvA 10 μg/ml) was 124%. It also gave an activity at 0.0001 mg/kg ([3]; OvA/Alum, OvA 25 μg/ml) of 150%, an activity at 0.0001 mg/kg ([3]; OvA/Alum, OvA 50 μg/ml) of 150% and an activity at 0.0001 mg/kg ([3]; OvA/Alum, OvA 100 μg/ml) of 158%. The activity at 0.001 mg/kg ([3]; OvA/Alum, OvA 0 μg/ml) was 100%, the activity at 0.001 mg/kg ([3]; OvA/Alum, OvA 10 μg/ml) was 98.3% and the activity at 0.001 mg/kg ([3]; OvA/Alum, OvA 25 μg/ml) was 103%. The activity at 0.001 mg/kg ([3]; OvA/Alum, OvA 50 μg/ml) was 103%, the activity at 0.001 mg/kg ([3]; OvA/Alum, OvA 100 μg/ml) was 122% and the activity at 0.01 mg/kg ([3]; OvA/Alum, OvA 0 μg/ml) was 100%. The activity at 0.01 mg/kg ([3]; OvA/Alum, OvA 10 μg/ml) was 47.9%, the activity at 0.01 mg/kg ([3]; OvA/Alum, OvA 25 μg/ml) was 119% and the activity at 0.01 mg/kg ([3]; OvA/Alum, OvA 50 μg/ml) was 119%. It also gave an activity at 0.01 mg/kg ([3]; OvA/Alum, OvA 100 μg/ml) of 140%, an activity at 0.0001 mg/kg ([3]; OvA/FA, OvA 0 μg/ml) of 100% and an activity at 0.0001 mg/kg ([3]; OvA/FA, OvA 10 μg/ml) of 119%. For the same compound, the activity at 0.0001 mg/kg ([3]; OvA/FA, OvA 25 μg/ml) was 121%, the activity at 0.0001 mg/kg ([3]; OvA/FA, OvA 50 μg/ml) was 142% and the activity at 0.0001 mg/kg ([3]; OvA/FA, OvA 100 μg/ml) was 136%. It also gave an activity at 0.001 mg/kg ([3]; OvA/FA, OvA 0 μg/ml) of 100%, an activity at 0.001 mg/kg ([3]; OvA/FA, OvA 10 μg/ml) of 128% and an activity at 0.001 mg/kg ([3]; OvA/FA, OvA 25 μg/ml) of 87.3%. For the same compound, the activity at 0.001 mg/kg ([3]; OvA/FA, OvA 50 μg/ml) was 116%, the activity at 0.001 mg/kg ([3]; OvA/FA, OvA 100 μg/ml) was 113% and the activity at 0.01 mg/kg ([3]; OvA/FA, OvA 0 μg/ml) was 100%. The activity at 0.01 mg/kg ([3]; OvA/FA, OvA 10 μg/ml) was 83.7%, the activity at 0.01 mg/kg ([3]; OvA/FA, OvA 25 μg/ml) was 66.2% and the activity at 0.01 mg/kg ([3]; OvA/FA, OvA 50 μg/ml) was 75.9%. The activity at 0.01 mg/kg ([3]; OvA/FA, OvA 100 μg/ml) was 74.8%, the “Production of IFN-γ by splenocytes” value ([3]; OvA/Alum, 0.1 μg/kg i/p, OvA 0 μg/ml) was 9365 pg/mL and the “Production of IFN-γ by splenocytes” value [3, 4] was 8816 pg/mL. The “Production of IFN-γ by splenocytes, % (% of control)” value [3, 4] was 94.1%.
